The values that follow are results of earlier work, collected in patent US12599565B2, “Stable benzimidazole formulation” (DEXCEL PHARMA TECHNOLOGIES LTD., priority 2008, dated 2026).

Regarding `COc1ccc2[nH]c([S+]([O-])Cc3ncc(C)c(OC)c3C)nc2c1` (centres unmarked) [Omeprazole, 5-methoxy-2(((4-methoxy-3,5-dimethyl-2-pyridinyl)methyl)sulfinyl)-1H-benzimidazole], the half life result (pH 11) was “about 300 days”. Further, the half-life of degradation entry (pH values below 4.0) is on record as “less than 10 minutes”.
